Assay results published in patent US7932270B2 (Cytokinetics, Inc., priority 2006, dated 2011).

Target: T1, chicken gizzard smooth muscle myosin subfragment-1 chemically crosslinked to cardiac or skeletal actin (Gallus gallus, UniProt P10587)
T1 construct: chicken gizzard smooth muscle myosin subfragment-1; from tissue; host or cells: chicken gizzard
Assay: Smooth muscle myosin ATPase dose response assay (pyruvate kinase/horseradish peroxidase/pyruvate oxidase-coupled, amplex red fluorescence)
Type: biochemical
Details: read-out: IC50 Arithmetic Mean
In short: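 Amplex red fluorescence (480 nm excitation, 615 nm emission) tracked ATP hydrolysis by smooth muscle S1 crosslinked to actin with carbodiimide/N-hydroxysuccinimide. Reactions contained 0.15 mM ATP and 100 mM KCl at pH 7.00, 22° C. IC50 came from a four-parameter logistic fit.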

T1 sequence (P02607 2-151): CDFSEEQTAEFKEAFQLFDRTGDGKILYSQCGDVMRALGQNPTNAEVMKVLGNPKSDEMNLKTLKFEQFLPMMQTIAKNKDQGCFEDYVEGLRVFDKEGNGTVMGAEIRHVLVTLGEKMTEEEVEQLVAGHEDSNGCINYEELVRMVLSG
T1 sequence (P10587 84-789): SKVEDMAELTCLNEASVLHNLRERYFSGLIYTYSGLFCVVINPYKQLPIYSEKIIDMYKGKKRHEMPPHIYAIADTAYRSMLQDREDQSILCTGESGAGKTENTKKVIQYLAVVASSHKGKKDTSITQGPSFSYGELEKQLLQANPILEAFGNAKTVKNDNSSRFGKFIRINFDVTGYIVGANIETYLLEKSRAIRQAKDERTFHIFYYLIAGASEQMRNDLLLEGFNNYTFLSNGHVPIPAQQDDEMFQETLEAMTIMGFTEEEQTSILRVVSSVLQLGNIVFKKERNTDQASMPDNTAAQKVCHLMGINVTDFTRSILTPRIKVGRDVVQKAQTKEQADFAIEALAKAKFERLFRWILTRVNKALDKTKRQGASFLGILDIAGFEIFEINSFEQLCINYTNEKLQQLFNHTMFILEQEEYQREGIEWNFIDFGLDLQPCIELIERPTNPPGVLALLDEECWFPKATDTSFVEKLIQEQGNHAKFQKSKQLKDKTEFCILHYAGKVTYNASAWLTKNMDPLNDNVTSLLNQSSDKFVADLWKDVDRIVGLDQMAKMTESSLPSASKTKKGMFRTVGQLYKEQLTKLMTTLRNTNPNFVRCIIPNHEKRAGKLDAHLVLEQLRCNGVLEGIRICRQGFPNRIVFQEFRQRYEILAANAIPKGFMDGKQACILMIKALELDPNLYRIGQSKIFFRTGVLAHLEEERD

IC50	SMILES
344 nM	Cc1csc(-c2ccc(C(=O)NCc3cccnc3)c(NCCc3ccccn3)n2)c1 [{6-(4-methyl(2-thienyl))-2-[(2-(2-pyridyl)ethyl)amino](3-pyridyl)}-N-(3-pyridylmethyl)carboxamide]
3180 nM	Cn1cc(-c2ccc(C(=O)NC[C@H]3CCCN3)c(NCCc3cccc(F)c3)n2)cn1 [N-[((2R)pyrrolidin-2-yl)methyl](2-{[2-(3-fluorophenyl)ethyl]amino}-6-(1-methylpyrazol-4-yl)(3-pyridyl))carboxamide]
677 nM	Cc1ccc(-c2ccc(C(=O)NCc3cccnc3)c(NCCc3ccccn3)n2)cc1 [{6-(4-methylphenyl)-2-[(2-(2-pyridyl)ethyl)amino](3-pyridyl)}-N-(3-pyridylmethyl)carboxamide]
2540 nM	O=C(NC[C@H]1CCN1C(=O)CO)c1ccc(-c2ccc(CO)s2)nc1NCCc1cccc(F)c1 [N-{[(2R)-1-(2-hydroxyacetyl)azetidin-2-yl]methyl}(2-{[2-(3-fluorophenyl)ethyl]amino}-6-[5-(hydroxymethyl)(2-thienyl)](3-pyridyl))carboxamide]
1560 nM	O=C(NCc1ccccc1)c1ccc(-c2ccccc2)nc1NCCc1ccccn1 [N-benzyl{6-phenyl-2-[(2-(2-pyridyl)ethyl)amino](3-pyridyl)}carboxamide]
370 nM	N#Cc1ccccc1-c1ccc(C(=O)NC[C@H]2CCCCN2S(=O)(=O)CCCN)c(NCCc2cccc(F)c2)n1 [N-({(2R)-1-[(3-aminopropyl)sulfonyl](2-piperidyl)}methyl)(6-(2-cyanophenyl)-2-{[2-(3-fluorophenyl)ethyl]amino}(3-pyridyl))carboxamide]
1460 nM	Cn1cc(-c2ccc(C(=O)NC[C@H]3CCCN3C(=O)CCCO)c(NCCc3cccc(F)c3)n2)cn1 [N-{[(2R)-1-(4-hydroxybutanoyl)pyrrolidin-2-yl]methyl}(2-{[2-(3-fluorophenyl)ethyl]amino}-6-(1-methylpyrazol-4-yl)(3-pyridyl))carboxamide]
382 nM	N#Cc1ccccc1-c1ccc(C(=O)NCC2CCN(CCCN)C2=O)c(NCCc2cccc(F)c2)n1 (centres unmarked) [N-{[1-(3-aminopropyl)-2-oxopyrrolidin-3-yl]methyl}(6-(2-cyanophenyl)-2-{[2-(3-fluorophenyl)ethyl]amino}(3-pyridyl))carboxamide]
4180 nM	COC(=O)[C@H](CO)NC(=O)c1ccc(-c2ccccc2C#N)nc1NCCc1cccc(F)c1 [methyl (2S)-2-[(6-(2-cyanophenyl)-2-{[2-(3-fluorophenyl)ethyl]amino}(3-pyridyl))carbonylamino]-3-hydroxypropanoate]
246 nM	N#Cc1ccccc1-c1ccc(C(=O)NC[C@H]2CCCN(C(=O)CN)C2)c(NCCc2cccc(F)c2)n1 [N-{[(3R)-1-(2-aminoacetyl)(3-piperidyl)]methyl}(6-(2-cyanophenyl)-2-{[2-(3-fluorophenyl)ethyl]amino}(3-pyridyl))carboxamide]
9770 nM	O=C(NCc1cccnc1)c1ccc(-c2ccccc2)nc1NCCc1c[nH]cn1 [{2-[(2-imidazol-4-ylethyl)amino]-6-phenyl(3-pyridyl)}-N-(3-pyridylmethyl)carboxamide]
3120 nM	C=CCNC(=O)c1ccc(-c2ccccc2)nc1NCCc1ccccn1 [{6-phenyl-2-[(2-(2-pyridyl)ethyl)amino](3-pyridyl)}-N-prop-2-enylcarboxamide]
1020 nM	N#Cc1ccccc1-c1ccc(C(=O)N[C@@H](CO)C(N)=O)c(NCCc2cccc(F)c2)n1 [N-((1S)-1-carbamoyl-2-hydroxyethyl)(6-(2-cyanophenyl)-2-{[2-(3-fluorophenyl)ethyl]amino}(3-pyridyl))carboxamide]
1620 nM	N#Cc1ccccc1-c1ccc(C(=O)NCCOCCN)c(NCCc2cccc(F)c2)n1 [N-[2-(2-aminoethoxy)ethyl](6-(2-cyanophenyl)-2-{[2-(3-fluorophenyl)ethyl]amino}(3-pyridyl))carboxamide]

Second part, the molecule before the results:

SMILES	IC50
CC(C)(C)OC(=O)NCCCN1CCCC1CNC(=O)c1ccc(-c2ccccc2C#N)nc1NCCc1cccc(F)c1 (centres unmarked) [N-[(1-{3-[(tert-butoxy)carbonylamino]propyl}pyrrolidin-2-yl)methyl](6-(2-cyanophenyl)-2-{[2-(3-fluorophenyl)ethyl]amino}(3-pyridyl))carboxamide]	2080 nM
Cn1cc(-c2nc(NCCc3cccc(F)c3)c(C(=O)NCC(CO)CO)cc2F)cn1 [(5-fluoro-2-{[2-(3-fluorophenyl)ethyl]amino}-6-(1-methylpyrazol-4-yl)(3-pyridyl))-N-[3-hydroxy-2-(hydroxymethyl)propyl]carboxamide]	134 nM
N#Cc1ccccc1-c1ccc(C(=O)NCCCC(=O)O)c(NCCc2cccc(F)c2)n1 [4-[(6-(2-cyanophenyl)-2-{[2-(3-fluorophenyl)ethyl]amino}-3-pyridyl)carbonylamino]butanoic acid]	627 nM
O=C(NCc1cccnc1)c1ccc(-c2ccc(CO)s2)nc1NCCc1cccc(F)c1 [(2-{[2-(3-fluorophenyl)ethyl]amino}-6-[5-(hydroxymethyl)(2-thienyl)](3-pyridyl))-N-(3-pyridylmethyl)carboxamide]	41 nM
Cn1cc(-c2ccc(C(=O)NCC3CCNC3=O)c(NCCc3cccc(F)c3)n2)cn1 (centres unmarked) [(2-{[2-(3-fluorophenyl)ethyl]amino}-6-(1-methylpyrazol-4-yl)(3-pyridyl))-N-[(2-oxopyrrolidin-3-yl)methyl]carboxamide]	248 nM
N#Cc1ccccc1-c1ccc(C(=O)NC[C@@H](CN)NC(=O)CO)c(NCCc2cccc(F)c2)n1 [N-((1R)-2-amino-1-{[(6-(2-cyanophenyl)-2-{[2-(3-fluorophenyl)ethyl]amino}(3-pyridyl))carbonylamino]methyl}ethyl)-2-hydroxyacetamide]	10600 nM
C[C@H](CNC(=O)c1cc(F)c(-c2cnn(C)c2)nc1NCCc1cccc(F)c1)NC(=O)[C@H](C)N	131 nM
Cn1cc(-c2ccc(C(=O)NCC3CCN(CCCNC(=O)OC(C)(C)C)C3=O)c(NCCc3cccc(F)c3)n2)cn1 (centres unmarked) [N-[(1-{3-[(tert-butoxy)carbonylamino]propyl}-2-oxopyrrolidin-3-yl)methyl](2-{[2-(3-fluorophenyl)ethyl]amino}-6-(1-methylpyrazol-4-yl)(3-pyridyl))carboxamide]	699 nM
Cn1cc(-c2ccc(C(=O)NC[C@H]3CCC(=O)N3CCCNC(=O)OC(C)(C)C)c(NCCc3cccc(F)c3)n2)cn1 [N-[((2R)-1-{3-[(tert-butoxy)carbonylamino]propyl}-5-oxopyrrolidin-2-yl)methyl](2-{[2-(3-fluorophenyl)ethyl]amino}-6-(1-methylpyrazol-4-yl)(3-pyridyl))carboxamide]	1340 nM
Cn1cc(-c2nc(NCCc3cccc(F)c3)c(C(=O)NCC(C)(C)O)cc2F)cn1 [(5-fluoro-2-{[2-(3-fluorophenyl)ethyl]amino}-6-(1-methylpyrazol-4-yl)(3-pyridyl))-N-(2-hydroxy-2-methylpropyl)carboxamide]	381 nM
Nc1ccc(CCNc2nc(-c3ccccc3)ccc2C(=O)NCc2cccnc2)cc1 [(2-{[2-(4-aminophenyl)ethyl]amino}-6-phenyl(3-pyridyl))-N-(3-pyridylmethyl)carboxamide]	27100 nM
N#Cc1ccccc1-c1ccc(C(=O)NC[C@H]2CCCN2C(=O)OCCN)c(NCCc2cccc(F)c2)n1 [2-aminoethyl (2R)-2-{[(6-(2-cyanophenyl)-2-{[2-(3-fluorophenyl)ethyl]amino}(3-pyridyl))carbonylamino]methyl}pyrrolidinecarboxylate]	27 nM
CC[C@H](CNC(=O)c1cc(F)c(-c2cnn(C)c2)nc1NCCc1cccc(F)c1)NC(=O)CNC(=O)OC(C)(C)C [N-((1R)-1-{[(5-fluoro-2-{[2-(3-fluorophenyl)ethyl]amino}-6-(1-methylpyrazol-4-yl)(3-pyridyl))carbonylamino]methyl}propyl)-2-[(tert-butoxy)carbonylamino]acetamide]	3040 nM
O=C(NCc1cccnc1)c1ccc(-c2ccccc2)nc1NCCc1ccc(F)c(F)c1 [(2-{[2-(3,4-difluorophenyl)ethyl]amino}-6-phenyl(3-pyridyl))-N-(3-pyridylmethyl)carboxamide]	521 nM
N#Cc1ccccc1-c1ccc(C(=O)NCCCN2C(=O)CC[C@H]2CN=[N+]=[N-])c(NCCc2cccc(F)c2)n1	16600 nM
